We go through 21 molecules from publication PMC6150407, “Synthesis and In Vitro Antiproliferative Activity of 11-Substituted Neocryptolepines with a Branched ω-Aminoalkylamino Chain” (Molecules : A Journal of Synthetic Chemistry and Natural …, 2017).

Assay [1] concerns human leukemia MV4-11 cell line. In words: Antiproliferative assay (MTT, 72 h) against human leukemia MV4-11 cell line. It is filed as cell-based. As to conditions: MV4-11 cells, 72 h exposure, 50% growth inhibition, mean ± SD. Here is the method: (§1) Anti-proliferative assays in vitro were performed in the same manner as described in the literature. The cell lines of human leukemia MV4-11, lung A549, and colon HCT 116 cancer were chosen as representing various tissue origins and BALB/3T3 normal murine fibroblasts to assess the cytotoxicity of tested compounds towards normal cells. The IC50 parameter (half-maximum inhibitory concentration) was calculated based on sulforhodamine B (HCT-116, A549, BALB/3T3) or MTT (MV4-11) assay results after 72 h of exposure. Each compound in a given concentration was tested in triplicate in each experiment, which was repeated three to five times.

The subject of assay [2] is normal murine embryonic fibroblast cell line (BALB/3T3). In words: Antiproliferative assay (sulforhodamine B, 72 h) against normal murine fibroblasts BALB/3T3. The class given is cell-based, mouse. The note with it: BALB/3T3 normal murine fibroblasts, mean ± SD. Here is the method:
as §1

Assay [3] has as its system Human lung cancer cell line (A-549). In words: Antiproliferative assay (sulforhodamine B, 72 h) against A549. As to conditions: A549 cells, mean ± SD. It is filed as cell-based. Here is the method:
as §1

In assay [4] the test system is human colon adenocarcinoma cell line (HCT 116). In words: Antiproliferative assay (sulforhodamine B, 72 h) against HCT 116. The class given is cell-based. The note with it: HCT 116 cells, mean ± SD. Here is the method:
as §1

Assay [5] deals with salmon sperm DNA. The assay is described as follows: DNA binding study by UV-Vis absorption spectroscopy. Here is the method:
The DNA binding studies of compound 2d were performed using UV-Vis absorption spectroscopy with salmon sperm DNA in a phosphate buffer of pH 7.0 at 20 °C. […] The maximum absorption shifted from 256 nm to 289 nm. This illustrated that the mode of 2d binding to DNA was intercalation. The binding constant of 2d to DNA was calculated as 4.12 × 10^5 L·mol^−1, according to a double-reciprocal equation.
Figure 3 (a) UV-Vis absorption spectra of compound 2d at 20 °C. C(2d) = 50 μmol/L, C(DNA) = 0.0, 0.025, 0.05, 0.075, 0.1, 0.125, 0.15, 0.175, 0.2, 0.225, 0.25 μmol/L for curves 1–11 in phosphate buffer solution (pH 7.0) (b) Plot of 1/ΔA vs. 1/[DNA] for 2d-DNA.
The commercially obtained reagents (TCI, Tokyo, Japan) were used directly without further purification. The ^1H-NMR and ^13C-NMR spectra were taken on Varian INOVA-600, Varian INOVA-400, Varian INOVA-300 (Palo Alto, CA, USA), or Bruker 400 spectrometers (Billerica, MA, USA), using CDCl3 or DMSO-d6 as a solvent and tetramethylsilane (TMS) as the internal standard. The NMR spectra of the compounds are in Supplementary Materials. […] The melting points were determined on a RFS-10 hot stage microscope (J-Science, Kyoto, Japan). The UV spectra were recorded with a U-2910 spectrophotometer (Hitachi, Tokyo, Japan) in a 1 cm path length quartz cuvette at an indicated wavelength, and the sample was dissolved in phosphate buffer with 2.5% DMSO.

Assay [6] has as its system human (HL-60) leukaemia cell line. Details: method as in PMID 11099695. The note with it: cited from earlier work.
In assay [7] the test system is human breast cancer MDA-MB-453 cell line. On the set-up: method as in doi:10.1007/s00044-016-1508-z. As to conditions: MDA-MB-453 breast cancer cell line; cited from earlier work.

Where a name gives a salt, the structure may show the parent alone.

With `Cc1ccc2c(c1)c(NCC(C)(C)N)c1c3ccccc3nc-1n2C` [Compound 2f, N-(2-Amino-2-methylpropyl)-2,5-dimethyl-5H-indolo[2,3-b]quinolin-11-amine], the IC50 (commonly the concentration at which inhibition is half-maximal) in assay [1] (Homo sapiens) came out at 105 ± 27 nM; in assay [2] (Mus musculus, BALB/3T3, 72 h), 10600 ± 330 nM; in assay [3] (Homo sapiens, A549, 72 h), 1800 ± 270 nM; in assay [4] (Homo sapiens), 2370 ± 481 nM.

For the molecule `Cn1c2nc3ccccc3c-2c(NCC(C)(C)CN)c2cc(Cl)ccc21` [Compound 2c, N-(3-Amino-2,2-dimethylpropyl)-2-chloro-5-methyl-5H-indolo[2,3-b]quinolin-11-amine], the IC50 in assay [1] (Homo sapiens) came out at 119 ± 43 nM; in assay [2] (Mus musculus, BALB/3T3, 72 h), 9130 ± 844 nM; in assay [3] (Homo sapiens, A549, 72 h), 1460 ± 168 nM; in assay [4] (Homo sapiens), 1370 ± 351 nM.

For `Cn1c2nc3ccccc3c-2c(NCC(C)(C)CN)c2ccccc21` [Compound 2a, N-(3-Amino-2,2-dimethylpropyl)-5-methyl-5H-indolo[2,3-b]quinolin-11-amine], the IC50 in assay [1] (Homo sapiens) is 150 ± 60 nM; in assay [2] (Mus musculus, BALB/3T3, 72 h), 4790 ± 2020 nM; in assay [3] (Homo sapiens, A549, 72 h), 1510 ± 198 nM; in assay [4] (Homo sapiens), 1260 ± 361 nM.

As for `N.N.[Cl][Pt][Cl]` [Cisplatin, reference compound], the IC50 was found to be 2820 ± 450 nM in assay [1], 8700 ± 97 nM in assay [2], 9870 ± 2400 nM in assay [3] and 8500 ± 540 nM in assay [4].

In turn, `Cn1c2nc3ccccc3c-2c(NCC(C)(C)N)c2cc(Cl)ccc21` [Compound 2g, N-(2-Amino-2-methylpropyl)-2-chloro-5-methyl-5H-indolo[2,3-b]quinolin-11-amine] came in with an IC50 in assay [1] (Homo sapiens) of 453 ± 209 nM.

On to `Cn1c2nc3ccccc3c-2c(NCC(C)(C)CNC(=S)Nc2ccccc2)c2ccccc21` [Compound 4a, 1-(2,2-Dimethyl-3-(5-methyl-5H-indolo[2,3-b]quinolin-11-ylamino)propyl)-3phenylthiourea], for which the IC50 in assay [1] (Homo sapiens) was found to be 680 ± 215 nM.

In turn, `Cc1ccc2c(c1)c(NCC(C)(C)CN)c1c3ccccc3nc-1n2C` [Compound 2b, N-(3-Amino-2,2-dimethylpropyl)-2,5-dimethyl-5H-indolo[2,3-b]quinolin-11-amine] gave an IC50 in assay [1] (Homo sapiens) of 288 ± 75 nM.

Consider `Cn1c2nc3ccccc3c-2c(NCC(O)CN)c2cc(Br)ccc21` (centres unmarked) [Compound 2k, 1-Amino-3-(2-bromo-5-methyl-5H-indolo[2,3-b]quinolin-11-ylamino)propan-2-ol], for which the IC50 in assay [1] (Homo sapiens) worked out at 57 ± 15 nM; in assay [3], 190 ± 27 nM; in assay [3] (Homo sapiens, A549, 72 h), 199 nM; in assay [4] (Homo sapiens), 117 ± 55 nM.

In assay [1] (Homo sapiens), `Cn1c2nc3ccccc3c-2c(NCC(C)(C)CN)c2cc(Br)ccc21` [Compound 2d, N-(3-Amino-2,2-dimethylpropyl)-2-bromo-5-methyl-5H-indolo[2,3-b]quinolin-11-amine] returned an IC50 of 308 ± 102 nM. The “mode of binding to DNA” value in assay [5] (UV-Vis, red shift 256 nm to 289 nm and hypochromic effect, pH 7.0, 20 °C) is recorded as “intercalation”. The “binding constant to DNA” value in assay [5] (salmon sperm DNA, phosphate buffer pH 7.0, 20 °C, double-reciprocal equation) turned out to be 412000 L/mol.

Take `CC(N)CNc1c2c3ccccc3nc-2n(C)c2ccc(Cl)cc12` (centres unmarked) [Compound 2m, N-(2-Aminopropyl)-2-chloro-5-methyl-5H-indolo[2,3-b]quinolin-11-amine]: the IC50 in assay [1] (Homo sapiens) is 103 ± 14 nM; in assay [2] (Mus musculus, BALB/3T3, 72 h), 1020 ± 17 nM; in assay [3] (Homo sapiens, A549, 72 h) it was 1270 ± 118 nM; in assay [4] (Homo sapiens) it was 1200 ± 283 nM.

Consider `Cc1ccc2c(c1)c(NCC(C)(C)CNC(=O)Nc1ccccc1)c1c3ccccc3nc-1n2C` [Compound 3b, 1-(3-(2,5-Dimethyl-5H-indolo[2,3-b]quinolin-11-ylamino)-2,2-dimethylpropyl)-3-phenylurea], for which the half-inhibitory concentration (IC50) in assay [1] (Homo sapiens) turned out to be 427 ± 92 nM.

`Cn1c2nc3ccccc3c-2c(NCC(C)(C)CNC(=O)Nc2ccccc2)c2ccccc21` [Compound 3a, 1-(2,2-Dimethyl-3-(5-methyl-5H-indolo[2,3-b]quinolin-11-ylamino)propyl)-3-phenylurea]: inhibition in assay [1] (Homo sapiens) was half-maximal at 549 ± 108 nM (IC50).

Consider `Cn1c2nc3ccccc3c-2cc2ccccc21` [neocryptolepine (II), neocryptolepine], for which the IC50 in assay [6] was 12700 ± 1300 nM; in assay [7], 7480 ± 4420 nM.

In the case of `Cn1c2nc3ccccc3c-2c(NCC(C)(C)NC(=S)Nc2ccccc2)c2cc(Cl)ccc21` [Compound 4b, 1-(1-(2-Chloro-5-methyl-5H-indolo[2,3-b]quinolin-11-ylamino)-2-methylpropan-2-yl)-3-phenylthiourea], the IC50 in assay [1] (Homo sapiens) worked out at 2330 ± 1010 nM.

As for `Cn1c2nc3ccccc3c-2c(Cl)c2ccccc21` [Compound 1a], the midpoint of inhibition in assay [1] (Homo sapiens), the IC50, lay at 1310 ± 262 nM.

On to `Cn1c2nc3ccccc3c-2c(NCC(C)(C)N)c2ccccc21` [Compound 2e, N-(2-Amino-2-methylpropyl)-5-methyl-5H-indolo[2,3-b]quinolin-11-amine], for which the IC50 in assay [1] (Homo sapiens) came to 392 ± 188 nM.

Regarding `COc1cccc2c1C(=O)c1c(O)c3c(c(O)c1C2=O)C[C@@](O)(C(=O)CO)C[C@@H]3O[C@H]1C[C@H](N)[C@H](O)[C@H](C)O1` [Doxorubicin HCl, reference compound], the IC50 turned out to be 6 ± 2 nM in assay [1] (Homo sapiens); 1080 ± 33 nM in assay [2] (Mus musculus, BALB/3T3, 72 h); 329 ± 97 nM in assay [3] (Homo sapiens, A549, 72 h); 390 ± 98 nM in assay [4] (Homo sapiens).

In assay [1] (Homo sapiens), `Cn1c2nc3ccccc3c-2c(NCC(C)(C)NC(=O)Nc2ccccc2)c2ccccc21` [Compound 3d, 1-(2-Methyl-1-(5-methyl-5H-indolo[2,3-b]quinolin-11-ylamino)propan-2-yl)-3-phenylurea] displayed an IC50 of 464 ± 141 nM.

As for `Cn1c2nc3ccccc3c-2c(NCC(C)(C)N)c2cc(Br)ccc21` [Compound 2n, N-(2-Amino-2-methylpropyl)-2-bromo-5-methyl-5H-indolo[2,3-b]quinolin-11-amine], the IC50 was found to be 78 ± 20 nM in assay [1] (Homo sapiens); 939 ± 18 nM in assay [2] (Mus musculus, BALB/3T3, 72 h); 988 ± 164 nM in assay [3] (Homo sapiens, A549, 72 h); 842 ± 367 nM in assay [4] (Homo sapiens).

On to `Cn1c2nc3ccccc3c-2c(NCC(O)CN)c2cc(Cl)ccc21` (centres unmarked) [Compound 2h, 1-Amino-3-(2-chloro-5-methyl-5H-indolo[2,3-b]quinolin-11-ylamino)propan-2-ol], for which the IC50 in assay [1] (Homo sapiens) is 42 ± 14 nM; in assay [3] (Homo sapiens, A549, 72 h), 197 ± 28 nM; in assay [4] (Homo sapiens), 138 ± 50 nM.

Take `Cn1c2nc3ccccc3c-2c(NCC(C)(C)CNC(=O)Nc2ccccc2)c2cc(Cl)ccc21` [Compound 3c, 1-(3-(2-Chloro-5-methyl-5H-indolo[2,3-b]quinolin-11-ylamino)-2,2-dimethylpropyl)-3-phenylurea]: in assay [1] (Homo sapiens), the IC50 is 790 ± 302 nM.
